# Molecular target: T1, JAK3 (recombinant human kinase domain; h-jak3(810-1124)) (Homo sapiens, UniProt P52333)
# T1 construct: h-jak3(810- 1124)-sf9-c; made in house; host or cells: Sf9 insect cells
# Experiment: Determination of IC50 of Janus Kinase (JAK) inhibition: JAK3, radioactive end-point assay with 33P-ATP
# Assay type: biochemical
# Conditions: JAK3 kinase domain; ATP 1.5 uM, peptide 50 uM, 20 minutes, room temperature, 10% DMSO; read-out: Ic50 h-jak3(810-1124)-sf9-c:no additive
# T1 sequence (P52333 810-1124): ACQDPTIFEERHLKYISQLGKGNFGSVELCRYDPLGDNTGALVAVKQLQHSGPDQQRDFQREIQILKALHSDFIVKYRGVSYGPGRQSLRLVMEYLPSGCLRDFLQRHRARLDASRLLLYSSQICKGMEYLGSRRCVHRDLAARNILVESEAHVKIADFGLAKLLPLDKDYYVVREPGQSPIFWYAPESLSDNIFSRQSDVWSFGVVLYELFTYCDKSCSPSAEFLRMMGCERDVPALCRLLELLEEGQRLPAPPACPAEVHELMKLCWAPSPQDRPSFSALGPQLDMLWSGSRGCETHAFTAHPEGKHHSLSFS
row,Compound,IC50 [nM]
1,"C[C@H](NC(=O)c1c[nH]c2ncc(C3CC3)nc12)C1CCCCC1 [Example I-32, 2-Cyclopropyl-5H-pyrrolo[2,3-b]pyrazine-7-carboxylic acid ((S)-1-cyclohexyl-ethyl)-amide]",20.1
2,"CC(C)(CO)NC(=O)c1c[nH]c2ncc(C3CC3)nc12 [Example I-45, 2-Cyclopropyl-5H-pyrrolo[2,3-b]pyrazine-7-carboxylic acid (2-hydroxy-1,1-dimethyl-ethyl)-amide]",208
3,"CC(C)NC(=O)c1c[nH]c2ncc(Oc3ccc4c(c3)C(O)CC4)nc12 (centres unmarked) [Example I-293, 2-(3-Hydroxy-indan-5-yloxy)-5H-pyrrolo[2,3-b]pyrazine-7-carboxylic acid isopropylamide]",162
4,"CN(C)c1cnc2[nH]cc(C(=O)NCC(C)(C)CO)c2n1 [Example I-4, 2-Dimethylamino-5H-pyrrolo[2,3-b]pyrazine-7-carboxylic acid (3-hydroxy-2,2-dimethyl-propyl)-amide]",34.9
5,"CCNC(=O)c1c[nH]c2ncc(Oc3ccccc3Cl)nc12 [Example I-265, 2-(2-Chloro-phenoxy)-5H-pyrrolo[2,3-b]pyrazine-7-carboxylic acid ethylamide]",1100
6,"CC(=O)N1CCC(CNC(=O)c2c[nH]c3ncc(C4CC4)nc23)C1 (centres unmarked) [Example I-137, 2-Cyclopropyl-5H-pyrrolo[2,3-b]pyrazine-7-carboxylic acid (1-acetyl-pyrrolidin-3-ylmethyl)-amide]",346
7,"C[C@H](NC(=O)c1c[nH]c2ncc(-c3ccc(C(=O)NCc4ccccn4)s3)nc12)C(C)(C)C [Example I-166, 2-{5-[(Pyridin-2-ylmethyl)-carbamoyl]-thiophen-2-yl}-5H-pyrrolo[2,3-b]pyrazine-7-carboxylic acid ((S)-1,2,2-trimethyl-propyl)-amide]",0.11
8,"C[C@@H](NC(=O)c1c[nH]c2ncc(-c3ccccn3)nc12)C(C)(C)O [Example I-112, 2-Pyridin-2-yl-5H-pyrrolo[2,3-b]pyrazine-7-carboxylic acid ((R)-2-hydroxy-1,2-dimethyl-propyl)-amide]",86.2
9,"COc1ccccc1Oc1cnc2[nH]cc(C(=O)NC(C)C)c2n1 [Example I-256, 2-(2-Methoxy-phenoxy)-5H-pyrrolo[2,3-b]pyrazine-7-carboxylic acid isopropylamide]",931
10,"Cc1cc(C)nc(Oc2cnc3[nH]cc(C(=O)NC(C)C)c3n2)c1 [Example I-279, 2-(4,6-Dimethyl-pyridin-2-yloxy)-5H-pyrrolo[2,3-b]pyrazine-7-carboxylic acid isopropylamide]",1110
11,"CC(C)(O)C(CCO)NC(=O)c1c[nH]c2ncc(C3CC3)nc12 (centres unmarked) [Example I-17, 2-Cyclopropyl-5H-pyrrolo[2,3-b]pyrazine-7-carboxylic acid [2-hydroxy-1-(2-hydroxy-ethyl)-2-methyl-propyl]-amide]",84.5
12,"CCNC(=O)c1c[nH]c2ncc(Oc3ccc4c(c3)[C@H](NS(C)(=O)=O)CC4)nc12 [Example I-270, 2-((R)-3-Methanesulfonylamino-indan-5-yloxy)-5H-pyrrolo[2,3-b]pyrazine-7-carboxylic acid ethylamide]",740
13,"CC[C@H](C)NC(=O)c1c[nH]c2ncc(C3CC3)nc12 [Example I-22, 2-Cyclopropyl-5H-pyrrolo[2,3-b]pyrazine-7-carboxylic acid ((S)-sec-butyl)-amide]",5.9
14,"C[C@H]1C[C@H]1c1cnc2[nH]cc(C(=O)NCC(C)(C)CO)c2n1 [Example I-46, 2-((1R,2S)-2-Methyl-cyclopropyl)-5H-pyrrolo[2,3-b]pyrazine-7-carboxylic acid (3-hydroxy-2,2-dimethyl-propyl)-amide]",228
15,"CC(C)[C@H](CO)NC(=O)c1c[nH]c2ncc(C3CC3)nc12 [Example I-56, 2-Cyclopropyl-5H-pyrrolo[2,3-b]pyrazine-7-carboxylic acid ((R)-1-hydroxymethyl-2-methyl-propyl)-amide]",9.84
16,"CCc1cnc2[nH]cc(C(=O)NCC(C)(C)CO)c2n1 [Example I-39, 2-Ethyl-5H-pyrrolo[2,3-b]pyrazine-7-carboxylic acid (3-hydroxy-2,2-dimethyl-propyl)-amide]",302
17,"CC(Cn1cccn1)NC(=O)c1ccc(-c2cnc3[nH]cc(C(=O)N[C@@H](C)C(C)(C)C)c3n2)s1 (stereo partly drawn) [Example I-158, 2-[5-(1-Methyl-2-pyrazol-1-yl-ethylcarbamoyl)-thiophen-2-yl]-5H-pyrrolo[2,3-b]pyrazine-7-carboxylic acid ((S)-1,2,2-trimethyl-propyl)-amide]",0.32
18,"C[C@H](NC(=O)c1c[nH]c2ncc(-c3cccs3)nc12)C(C)(C)O [Example I-18, 2-Thiophen-2-yl-5H-pyrrolo[2,3-b]pyrazine-7-carboxylic acid ((S)-2-hydroxy-1,2-dimethyl-propyl)-amide]",3.05

row,Compound,IC50 [nM]
1,"CC(C)C(C#N)NC(=O)c1c[nH]c2ncc(C3CC3)nc12 (centres unmarked) [Example I-89, 2-Cyclopropyl-5H-pyrrolo[2,3-b]pyrazine-7-carboxylic acid (1-cyano-2-methyl-propyl)-amide]",13.4
2,"C[C@H](NC(=O)c1c[nH]c2ncc(-c3cnn(C)c3)nc12)C1CCCCC1 [Example I-140, 2-(1-Methyl-1H-pyrazol-4-yl)-5H-pyrrolo[2,3-b]pyrazine-7-carboxylic acid ((S)-1-cyclohexyl-ethyl)-amide]",0.88
3,"CCC[C@@](C)(O)[C@@H](C)NC(=O)c1c[nH]c2ncc(C3CC3)nc12 [Example I-84, 2-Cyclopropyl-5H-pyrrolo[2,3-b]pyrazine-7-carboxylic acid ((1R,2R)-2-hydroxy-1,2-dimethyl-pentyl)-amide]",65.1
4,"Cc1ccc(CNC(=O)c2ccc(-c3cnc4[nH]cc(C(=O)N[C@@H](C)C(C)(C)C)c4n3)s2)cc1 [Example I-184, 2-[5-(4-Methyl-benzylcarbamoyl)-thiophen-2-yl]-5H-pyrrolo[2,3-b]pyrazine-7-carboxylic acid ((S)-1,2,2-trimethyl-propyl)-amide]",0.32
5,"C[C@H](NC(=O)c1c[nH]c2ncc(-c3ccc(C(=O)NC(C)(C)C)s3)nc12)C(C)(C)C [Example I-157, 2-(5-tert-Butylcarbamoyl-thiophen-2-yl)-5H-pyrrolo[2,3-b]pyrazine-7-carboxylic acid ((S)-1,2,2-trimethyl-propyl)-amide]",0.43
6,"C[C@H](NC(=O)c1c[nH]c2ncc(-c3ccc(C(=O)NC4CCOCC4)s3)nc12)C(C)(C)C [Example I-225, 2-[5-(Tetrahydro-pyran-4-ylcarbamoyl)-thiophen-2-yl]-5H-pyrrolo[2,3-b]pyrazine-7-carboxylic acid ((S)-1,2,2-trimethyl-propyl)-amide]",0.19
7,"CCNC(=O)c1c[nH]c2ncc(Oc3cccc(C(F)(F)F)c3)nc12 [Example I-251, 2-(3-Trifluoromethyl-phenoxy)-5H-pyrrolo[2,3-b]pyrazine-7-carboxylic acid ethylamide]",4030
8,"CC(NC(=O)c1c[nH]c2ncc(C3CC3)nc12)C(C)(C)CO (centres unmarked) [Example I-71, 2-Cyclopropyl-5H-pyrrolo[2,3-b]pyrazine-7-carboxylic acid (3-hydroxy-1,2,2-trimethyl-propyl)-amide]",3.8
9,"C[C@H](NC(=O)c1c[nH]c2ncc(Oc3ccccc3)nc12)C(C)(C)C [Example I-120, 2-Phenoxy-5H-pyrrolo[2,3-b]pyrazine-7-carboxylic acid ((S)-1,2,2-trimethyl-propyl)-amide]",24.4
10,"CC(C)NC(=O)c1c[nH]c2ncc(Oc3ccc4c(c3)[C@H](NC(=O)C3CCOCC3)CC4)nc12 [Example I-283, 2-{(R)-3-[(Tetrahydro-pyran-4-carbonyl)-amino]-indan-5-yloxy}-5H-pyrrolo[2,3-b]pyrazine-7-carboxylic acid isopropylamide]",56.7
11,"CON(C)C(=O)c1ccc(-c2cnc3[nH]cc(C(=O)N[C@@H](C)C(C)(C)C)c3n2)s1 [Example I-196, 2-[5-(Methoxy-methyl-carbamoyl)-thiophen-2-yl]-5H-pyrrolo[2,3-b]pyrazine-7-carboxylic acid ((S)-1,2,2-trimethyl-propyl)-amide]",0.47
12,"CC(C)NC(=O)c1ccc(-c2cnc3[nH]cc(C(=O)N[C@@H](C)C(C)(C)C)c3n2)s1 [Example I-156, 2-(5-Isopropyl-carbamoyl-thiophen-2-yl)-5H-pyrrolo[2,3-b]pyrazine-7-carboxylic acid ((S)-1,2,2-trimethyl-propyl)-amide]",0.35
13,"C[C@@H](NC(=O)c1c[nH]c2ncc(C3CC3)nc12)C1(O)CCCC1 [Example I-82, 2-Cyclopropyl-5H-pyrrolo[2,3-b]pyrazine-7-carboxylic acid [(R)-1-(1-hydroxy-cyclopentyl)-ethyl]-amide]",15.2
14,"CC(CN(C)C)NC(=O)c1c[nH]c2ncc(C3CC3)nc12 (centres unmarked) [Example I-27, 2-Cyclopropyl-5H-pyrrolo[2,3-b]pyrazine-7-carboxylic acid (2-dimethylamino-1-methyl-ethyl)-amide]",934
15,"C[C@H](NC(=O)c1c[nH]c2ncc(-c3cn(-c4cc(Cl)ccc4F)cn3)nc12)C(C)(C)C [Example I-147, 2-[1-(5-Chloro-2-fluoro-phenyl)-1H-imidazol-4-yl]-5H-pyrrolo[2,3-b]pyrazine-7-carboxylic acid ((S)-1,2,2-trimethyl-propyl)-amide]",2.46
16,"C[C@H](NC(=O)c1c[nH]c2ncc(-c3cn(-c4cc(C(F)(F)F)ccc4F)cn3)nc12)C(C)(C)C [Example I-149, 2-[1-(2-Fluoro-5-trifluoromethyl-phenyl)-1H-imidazol-4-yl]-5H-pyrrolo[2,3-b]pyrazine-7-carboxylic acid ((S)-1,2,2-trimethyl-propyl)-amide]",2.99
17,"CNC(=O)N[C@@H]1CCc2ccc(Oc3cnc4[nH]cc(C(=O)NC(C)C)c4n3)cc21 [Example I-292, 2-[(R)-3-(3-Methyl-ureido)-indan-5-yloxy]-5H-pyrrolo[2,3-b]pyrazine-7-carboxylic acid isopropylamide]",91.7

# Reference: patent publication US20140155376A1, “PYRROLOPYRAZINE KINASE INHIBITORS” (Hoffmann-La Roche Inc., priority 2010, published 2014)
